Test [1] addresses T1, N-terminal region of mV1 (mN region, 1M-433R) (Mus musculus, UniProt Q704Y3).
T1 construct: N-terminal region of mV1 (mN region, 1M-433R)
The experiment in a line: SPR, N-terminal region of mV1 immobilized. It is filed as binding. The following applies: 47.6 to 95.2 μM, 15 °C. The method, then: Note that the desensitization of mV1 occurs before cooling starts. Amplitude ratio (n = 7, two-sided t-test: *p < 0.01) between desensitized currents (Id) and maximum currents (Imax) induced by heat at 45 °C (right panel). c Superimposed representative temperature–response relationships of heat-evoked currents in HEK293T cells transiently transfected with pV1 and mV1. d Chimeric channels were generated between mV1 (gray) and pV1 (yellow) on the basis of the location of transmembrane domains. […] Channel plasmid was co-expressed with C-terminal region of pV1 (pC, 701N-851E) or mV1 (mC, 688N-839K). g Example current induced by a temperature ramp recorded from whole-cell patches with 1 mM mV1 C-terminal peptide (mC peptide) or random peptide in the pipette solution. h The mC peptide was perfused over an SPR sensor coated with the N-terminal region of mV1 (mN region, 1M-433R) at 15 or 35 °C (left and middle panels). The mC peptide in 95.2 μM was perfused over an SPR sensor coated with mN region at 15, 30, 33, and 35 °C (right panel). i Significant concentration and temperaturedependence of the interaction between N and C termini (n = 6, two-sided t-test: *p < 0.01). All statistical data are given as mean ± SEM. Source data are provided as a Source data file […]

Test [2] addresses T2, mV1 (Mus musculus, UniProt Q704Y3).
T2 construct: expressed in transfected cells; host or cells: HEK293T
Nature of the test: Inhibition of Dh of mV1 by C-terminal peptides or co-expressed C terminus, whole-cell. It is filed as cell-based. Set-up: Tau values: unit not given here. The following applies: for Id/Imax / Tau values: Supplementary figure 1e. An excerpt:
To generate the mC plasmid, the pEGFP-N1 vector enzyme cutting sites by HindIII and EcoRI were made by QuickCut Hind III and QuickCut EcoR I. The primer pair (5′- […]-3′ and 5′- […]-3′) for mouse TRPV1 was generated. pEGFP-N1 enzyme digestion vector and mouse TRPV1 PCR fragment were used for homologous recombination.
The pC plasmid was generated by the primer pair (5′-[…]-3′ and 5′-[…]-3′) and the homologous recombination between the pEGFP-N1 enzyme digestion vector and platypus TRPV1 PCR fragment were used.
The C-terminal peptides were synthesized[26] as the following sequences:
Random peptide: […]
(§1) All recordings were performed at room temperature.
(§2) Temperature control was achieved by perfusion of preheated or precooled solutions. Solutions were heated with an SHM-828 eight-line heater controlled by a CL-100 temperature controller (Harvard Apparatus). A custom-made manifold was attached to the output ports of the heater to deliver solutions to the recording chamber and provide heat insulation. Solutions were cooled by embedding the solution reservoirs in ice water and then perfused through a separate line. The patch pipette was placed about 1 mm from the solution output ports. A TA-29 miniature bead thermistor (Harvard Apparatus) was placed right next to the pipette, to ensure accurate monitoring of local temperature. The thermistor’s temperature readout was fed into an analog input of the patch amplifier and recorded simultaneously with current. With this method, we achieved rapid and reliable temperature changes.

The subject of test [3] is TRPV1. The following applies: cited from earlier work. From the text:
To further corroborate our findings in FRET experiments of heat-desensitized channels, we took an alternative experimental strategy where we measured the changes in FRET induced by centipede toxin RhTx. […] Thus, we believe that the prolonged application of RhTx mimicked the effect ... || Based on the site-specific structural dynamics information, we computationally modeled the three-dimensional structure of mV1 in the Dh state. The blue shift in ANAP emission indicated a transition into a more hydrophobic environment at the 630 site, which provided an experimentally derived constraint for structural modeling using a recently published approach. As the heat-activated state of TRPV1 channels has not been resolved, we employed the double-knot toxin-bound state determined by cryo-EM (PDB ID: 3J5Q)[20] as the open state model, because a previous study had shown that Redhead tox ... || To model the heat-induced desensitized state of TRPV1, membrane-symmetry-loop modeling was performed using the Rosetta molecular modeling suite[41] version 2015.25. […] The selectivity filter, the pre S6 linker, and the S1–S2 linker were modeled de novo with the kinematic (KIC) loop modeling protocol[42],[43]. Ten th ... || (+ 1 further places)

Test [4] concerns mV1, pV1 and mutants. The experiment in a line: Heat-induced desensitization (Dh): Id/Imax and tau, patch clamp. The test is classed as cell-based, mouse; platypus. The following applies: Figure 2g. The protocol: as §1, §2
(In general: The patch-clamp technique gives a direct electrical read-out from membranes.)

Test [5] has as its target T3, N-terminal region of mV1 (mN region, 1M-433R) (mouse, UniProt Q704Y3 1-433).
T3 construct: mouse TRPV1 (mV1), N-terminal region, residues 1M-433R; In the functional rows the N terminus stood within the whole mV1 channel in HEK293T cells; also called N-terminal peptides; N terminus of mV1
The experiment in a line: SPR; mN region (1M-433R) immobilised on the sensor chip, mC peptide (30 aa) perfused at 47.6 and 95.2 uM; 15 °C ('low temperature'). The following applies: both partners purified. Background: SPR reads the build-up and loss of mass on a sensor chip optically.

Test [6] concerns the target T3, N-terminal region of mV1 (mN region, …). The experiment in a line: SPR; mN region (1M-433R) immobilised on the sensor chip, mC peptide (30 aa) perfused at 47.6 and 95.2 uM; 35 °C ('high temperature'). The following applies: both partners purified.
Setting [7] is: Id/Imax_Average of 6 replicates, SD and SEM in columns of their own.
Where [8] appears, read: Tau values_Average of 6 replicates, SD and SEM in columns of their own.

Ends that are not written are not given here.

By Kd is commonly meant the equilibrium constant for the complex coming apart.

In the case of “PEEVQLKHYTGSLKPEDAEVFKDSMAPGEK [mC peptide]”, the “increase in SPR response” value in test [1] came to 162%.

In the case of “QVEEPTYHKLPKLSGVEADEMSDKFKEGPM [Random peptide]”, in test [2] (1 mM peptide in pipette solution, whole-cell), the “inhibition of Dh of mV1” value is “failed to inhibit Dh”.

Take `C=C(C)[C@]12C[C@@H](C)[C@@]34O[C@](Cc5ccccc5)(O[C@@H]1[C@@H]3C=C(COC(=O)Cc1ccc(O)c(OC)c1)C[C@]1(O)C(=O)C(C)=C[C@@H]41)O2` [RTX]: the “activation through heat activation pathway” value in test [3] is listed as “activated the channel through heat activation pathway”.

Turning to “LKHYTGSLKPEDAEVFKDSMAPGEK [Pep_25, C-terminal peptide]”, the Id/Imax in test [2] (setting [7]) is 0.403; in test [2] (replicate 1) it was 0.318; in test [2] (replicate 2), 0.509; in test [2] (replicate 3), 0.427; in test [2] (replicate 4) it was 0.384; in test [2] (replicate 5), 0.367. For the same molecule, the Id/Imax in test [2] (replicate 6) is given as 0.413. In addition, the Tau values amounted to 59.5 in test [2] (setting [8]); 43.8 in test [2] (replicate 1); 73 in test [2] (replicate 2); 60.4 in test [2] (replicate 3); 48.3 in test [2] (replicate 4); 52 in test [2] (replicate 5). For the same molecule, in test [2] (replicate 6), the Tau values came to 79.5.

As to “GSLKPEDAEVFKDSMAPGEK [Pep_20, C-terminal peptide]”, the Id/Imax in test [2] (setting [7]) is 0.596; in test [2] (replicate 1), 0.486; in test [2] (replicate 2), 0.667; in test [2] (replicate 3), 0.715; in test [2] (replicate 4) it was 0.612; in test [2] (replicate 5), 0.567. In addition, the Id/Imax in test [2] (replicate 6) worked out at 0.529. Besides, the Tau values in test [2] (setting [8]) is listed as 29.8; in test [2] (replicate 1) it was 23.5; in test [2] (replicate 2), 38.3; in test [2] (replicate 3) it was 20.7; in test [2] (replicate 4), 24.4; in test [2] (replicate 5), 39.6. For the same molecule, the Tau values in test [2] (replicate 6) was determined as 32.3.

B1: mV1 (protein, UniProt Q704Y3 1-839, looked up)
Transient receptor potential …: MEKWASLDSDESEPPAQENSCPDPPDRDPNSKPPPAKPHIFATRSRTRLFGKGDSEEASPMDCPYEEGGLASCPIITVSSVVTLQRSVDGPTCLRQTSQDSVSTGVETPPRLYDRRSIFDAVAQSNCQELESLLSFLQKSKKRLTDSEFKDPETGKTCLLKAMLNLHNGQNDTIALLLDIARKTDSLKQFVNASYTDSYYKGQTALHIAIERRNMALVTLLVENGADVQAAANGDFFKKTKGRPGFYFGELPLSLAACTNQLAIVKFLLQNSWQPADISARDSVGNTVLHALVEVADNTADNTKFVTNMYNEILILGAKLHPTLKLEELTNKKGLTPLALAASSGKIGVLAYILQREIHEPECRHLSRKFTEWAYGPVHSSLYDLSCIDTCEKNSVLEVIAYSSSETPNRHDMLLVEPLNRLLQDKWDRFVKRIFYFNFFVYCLYMIIFTTAAYYRPVEGLPPYKLNNTVGDYFRVTGEILSVSGGVYFFFRGIQYFLQRRPSLKSLFVDSYSEILFFVQSLFMLVSVVLYFSHRKEYVASMVFSLAMGWTNMLYYTRGFQQMGIYAVMIEKMILRDLCRFMFVYLVFLFGFSTAVVTLIEDGKNNSLPVESPPHKCRGSACRPGNSYNSLYSTCLELFKFTIGMGDLEFTENYDFKAVFIILLLAYVILTYILLLNMLIALMGETVNKIAQESKNIWKLQRAITILDTEKSFLKCMRKAFRSGKLLQVGFTPDGKDDFRWCFRVDEVNWTTWNTNVGIINEDPGNCEGVKRTLSFSLRSGRVSGRNWKNFALVPLLRDASTRDRHSTQPEEVQLKHYTGSLKPEDAEVFKDSMAPGEK
In the case of B1, in test [4] (mean of replicates), the Id/Imax_Average came out at 0.993. Further, the Id/Imax in test [4] (replicate 1) was 0.9971; in test [4] (replicate 2), 0.9951; in test [4] (replicate 3), 0.999; in test [4] (replicate 4), 0.9588; in test [4] (replicate 5), 0.9972; in test [4] (replicate 6) it was 0.9943. For the same molecule, the Id/Imax in test [4] (replicate 7) is listed as 0.9968; in test [4] (replicate 8) it was 0.9956; in test [4] (replicate 9), 0.9982; in test [4] (replicate 10), 0.9979.

B2: mV1 C-terminal peptide (Pep_30) (peptide)
peptide: PEEVQLKHYTGSLKPEDAEVFKDSMAPGEK
notes: last 30 residues of mouse TRPV1 (mV1); The text ties the SPR and the pipette experiment to 'a 30-amino-acid' C-terminal peptide; Pep_30 is the only printed peptide of that length from mV1; also called mC peptide; C-terminal peptides (a 30-amino-acid molecule); source: synthetic peptide
For B2, the Kd in test [5] came to 140 nM; in test [6] it was 3 nM.

B3: C terminus of mV1: C-terminal region of mV1 (mC, 688N-839K), co-expressed plasmid (protein)
chain: NKIAQESKNIWKLQRAITILDTEKSFLKCMRKAFRSGKLLQVGFTPDGKDDFRWCFRVDEVNWTTWNTNVGIINEDPGNCEGVKRTLSFSLRSGRVSGRNWKNFALVPLLRDASTRDRHSTQPEEVQLKHYTGSLKPEDAEVFKDSMAPGEK
modifications: left off: eGFP (from the vector pEGFP-N1), end not stated, state not stated
notes: C-terminal region of mV1 (mC, 688N-839K), co-expressed plasmid
In the case of B3, the “inhibition of Dh of mV1” value in test [2] (co-expression with C-terminal region) was “largely inhibited”.

B4: DkTx: peptide toxin, double-knot toxin (peptide, UniProt P0CH43 1-79, looked up)
Tau-theraphotoxin-Hs1a: DCAKEGEVCSWGKKCCDLDNFYCPMEFIPHCKKYKPYVPVTTNCAKEGEVCGWGSKCCHGLDCPLAFIPYCEKYRGRND
On to B4, for which, in test [3], the “activation through heat activation pathway” value was “activated the channel through heat activation pathway” and the “mimicry of heat activation” value is “mimic heat activation of TRPV1”.
